Test results as given in ChEMBL document CHEMBL4706518, “Discovery of MGS0274, an ester prodrug of a metabotropic glutamate receptor 2/3 agonist with improved oral bioavailability” (Eur J Med Chem, 2020).

Experiments:
[1] = Lipophilicity, logD of compound in n-octanol and phosphate buffered saline at 2 mg after 1.5 hrs by HPLC based shake flask method; assay type: physicochemical; conditions: for logD at 1.5 h: n-octanol/phosphate buffered saline
[2] = Stability of compound in PBS at pH 6.5 assessed as remaining parent compound at 50 ug/ml after 1 hr by HPLC analysis; assay type: physicochemical; conditions: PBS at pH 6.5, pH 6.5, at 50 µg/mL, read-out: Stabilty
[3] = Stability of compound in HCL at pH 1.2 assessed as remaining parent compound at 50 ug/ml after 1 hr by HPLC analysis; assay type: physicochemical; conditions: HCl at pH 1.2, pH 1.2, at 50 µg/mL, read-out: Stabilty
[4] = Oral bioavailability in monkey at 4.92 umol/kg measured up to 24 hrs by LC-MS/MS analysis; assay type: ADME, organism-based, Macaca mulatta; conditions: rhesus monkey, in vivo, at 4.92 µmol/kg

Structure (SMILES) | logD at 1.5 h [1] | remaining at 1 h, 50 ug/ml [2] [%] | remaining at 1 h, 50 ug/ml [3] [%] | logD ([1]; 1.5 h) | bioavailability [4] [%]
CC(C)[C@@H]1CC[C@@H](C)C[C@H]1OC(=O)O[C@H](C)OC(=O)[C@H]1[C@@H]2C[C@H](F)[C@@](N)(C(=O)O)[C@@H]21 | > 1.78 | – | – | – | –
CC(C)(C)C(=O)OCOC(=O)[C@H]1[C@@H]2C[C@H](F)[C@@](N)(C(=O)O)[C@@H]21 | -0.54 | 99 | 100 | – | –
CC(OC(=O)C(C)C)OC(=O)[C@H]1[C@@H]2C[C@H](F)[C@@](N)(C(=O)O)[C@@H]21 (stereo partly drawn) | < -0.65 | 101 | 100 | – | –
CC(OC(=O)OC1CCCCC1)OC(=O)[C@@]1(N)[C@H]2[C@@H](C[C@@H]1F)[C@@H]2C(=O)O (stereo partly drawn) | – | 25 | 75 | Nd(Unstable) | –
CC(OC(=O)OC1CCCCC1)OC(=O)[C@H]1[C@@H]2C[C@H](F)[C@@](N)(C(=O)O)[C@@H]21 (stereo partly drawn) | 0.58 | 97 | 100 | – | 18
CC(OC(=O)OC12CC3CC(CC(C3)C1)C2)OC(=O)[C@H]1[C@@H]2C[C@H](F)[C@@](N)(C(=O)O)[C@@H]21 (stereo partly drawn) | 1.67 | 97 | 95 | – | –
CC(OC(=O)O[C@@H]1C[C@H](C)CC[C@H]1C(C)C)OC(=O)[C@H]1[C@@H]2C[C@H](F)[C@@](N)(C(=O)O)[C@@H]21 (stereo partly drawn) | 2.77 | 100 | 100 | – | 58
Cc1oc(=O)oc1COC(=O)[C@H]1[C@@H]2C[C@H](F)[C@@](N)(C(=O)O)[C@@H]21 | -1.69 | 98 | 99 | – | –
CC(C)OC(=O)OC(C)OC(=O)[C@H]1[C@@H]2C[C@H](F)[C@@](N)(C(=O)O)[C@@H]21 (stereo partly drawn) | 0.06 | 101 | 102 | – | –
N[C@]1(C(=O)O)[C@H]2[C@@H](C[C@@H]1F)[C@@H]2C(=O)OC1OC(=O)c2ccccc21 (stereo partly drawn) | -0.71 | 97 | 99 | – | –
Cc1oc(=O)oc1COC(=O)[C@@]1(N)[C@H]2[C@@H](C[C@@H]1F)[C@@H]2C(=O)O | -0.95 | 54 | 95 | – | –
